Measurements: patent US11247998B2, “Piperazine heteroaryl derivative, preparation method therefor and use of same in medicine” (priority 2017, dated 2022)
Like-named read-outs stand apart in the source and are kept apart here.

Columns and labels:
[1] = system: HepG2 cells; assay: Effect on in vitro proliferation of HepG2 cells (CellTiter-Glo); type: cell-based
Experimental: (§1) Test Example 2. Effect of the Compound of the Present Invention on In Vitro Proliferation of HepG2 Cells
(§2) HepG2 cells in logarithmic growth phase were taken and digested with trypsin to prepare a cell suspension, which was incubated in a 96-well plate (transparent bottom white 96-well plate, PerkinElmer) at 6,000 cells/well, at 5% carbon dioxide, 37° C. for 16-20 hours. On Day 2, the compound was dissolved in pure DMSO at a concentration of 20 mM. The compound was diluted in 3-fold concentration gradient using an automatic pipetting station (Bravo), 8 concentration points for each compound, and the control well was DMSO. The compound formulated in DMSO at each concentration point was diluted 200-fold with EMEM (containing 10% FBS) medium. The cell culture plate inoculated on Day 1 was taken out. The medium in the wells was removed by a negative pressure suction device, and the formulated medium containing the compound at each concentration was added respectively to each well at 100 μl/well. The plate was incubated at 37° C. for 72 hours. On Day 5, the 96-well cell culture plate was taken out, and freshly formulated CellTiter Glo was added to each well at 100 μl/well. The 96-well plate was left to stand for 5-10 minutes, the bottom was then sealed with a white bottom sealing film (PerkinElmer). The plate was placed in the microplate reader to measure the luminescence signal. The CC50 value of the compound was calculated with Graphpad Prism software according to each concentration of the compound and the corresponding proliferation inhibition signal value.
(§3) The inhibition effect of the compound of the present invention on in vitro proliferation of HepG2 cells was determined by the above experiment.

[2] = Pharmacokinetics assay in rats after intragastrical administration (LC/MS/MS of plasma); type: in vivo; details: SD rats, 2 mg/kg; for Vd/F / AUC / bioavailability / CL/F / half-life / Cmax / MRT: both sexes, rat, plasma, po; for Vd/F: read-out: Apparent distribution volume Vz/F; for AUC: read-out: Area under curve AUC; for bioavailability: read-out: Bioavailability (%) F %; for CL/F: read-out: Clearance CLz/F; for half-life: read-out: Half-life T1/2 (converted); for Cmax: read-out: Plasma concentration Cmax; for MRT: read-out: Residence time MRT
Experimental: Pharmacokinetics assay of the compound of the present invention
Rats were used as test animals. The drug concentration in plasma at different time points was determined by LC/MS/MS method after intragastrical administration of the compound of Example 1, the compound of Example 2, the compound of Example 4, the compound of Example 6, the compound of Example 7, the compound of Example 11, the compound of Example 39, the compound of Example 42, the compound of Example 44, the compound of Example 45 and the compound of Example 47 to rats. The pharmacokinetic behavior and property of the compound of the present invention were studied and evaluated in rats.
44 Healthy adult SD rats (half male and half female, 4 rats/group) were purchased from Shanghai Jiesijie Laboratory Animal Co., LTD, with Certificate No.: SCXK (Shanghai) 2013-0006.
A certain amount of the test compound was weighed, and added with 5% by volume of DMSO, 5% by volume of tween 80 and 90% by volume of normal saline to prepare a 0.2 mg/mL colorless, clear and transparent solution.
After an overnight fast, SD rats were administrated intragastrically with the test compound at an administration dose of 2.0 mg/kg and an administration volume of 10.0 mL/kg.
The rats were intragastrically administrated the compound of Example 1, the compound of Example 2, the compound of Example 4, the compound of Example 6, the compound of Example 7, the compound of Example 11, the compound of Example 39, the compound of Example 42, the compound of Example 44, the compound of Example 45 and the compound of Example 47. 0.1 ml of blood was taken from the orbit before administration and at 0.5, 1.0, 2.0, 4.0, 6.0, 8.0, 11.0 and 24.0 hours after administration. The samples were stored in heparinized tubes, and centrifuged for 10 minutes at 3500 rpm to separate the blood plasma. The plasma samples were stored at −20° C. The rats were fed two hours after administration.
The content of the test compound in the plasma of rats after intragastrical administration of the test compound at different concentrations was determined: 25 μL of rat plasma at each time after administration was taken, added with 40 μL of the internal standard solution of camptothecin (100 ng/mL) and 200 μL of acetonitrile, vortex-mixed for 5 minutes, and centrifuged for 10 minutes (4000 rpm). 0.2 μL of the supernatant was taken from the plasma samples for LC/MS/MS analysis.

[3] = system: HBV DNA replication in HepG2.2.15 cells; assay: In vitro anti-HBV activity test (quantitative assay of intracellular HBV DNA), HepG2.2.15 cells, quantitative PCR; type: cell-based, hepatitis B virus (HBV); details: HBV DNA by quantitative PCR; for EC50: compound treatment Day 2 to Day 8; for Emax: read-out: Emax (effect value of the compound to maximally inhibit HBV DNA replication)
Experimental: In vitro anti-HBV activity test of the compound of the present invention (quantitative assay of intracellular HBV DNA)
HepG2.2.15 cell is a stable expression cell line that has integrated HBV genome.
Virus particles containing HBV DNA can be synthesized by replication, transcription and encapsidation in the cells, and then secreted. In this study, the quantitative analysis of HBV DNA produced by HepG2.2.15 in vitro proliferation was carried out by quantitative PCR method, thereby determining the activity of the compound of the present invention on inhibiting the HBV DNA replication by inhibiting the assembly of HBV capsid protein.
HepG2.2.15 cells were cultured in DMEM/high glucose medium (10% FBS, […] G418) and passaged every three days. On the day of the experiment, a cell suspension was prepared with fresh cell culture medium, and incubated in a 96-well plate (Corning, #3599) at 40,000 cells/well, at 5% carbon dioxide, 37° C. On Day 2, the compound was dissolved in pure DMSO at a concentration of 20 mM, and then the first concentration of 2 mM was formulated with DMSO, and diluted in 4-fold concentration gradient to 8 concentrations. A control well was added with 90 μl of DMSO. The compound solution was diluted 200-fold with DMEM/high glucose medium. The cell culture plate inoculated on Day 1 was taken out. The medium in the wells was removed by a negative pressure suction device, and the formulated medium containing the compound at each concentration was added respectively to each well at 200 μl/well. The plate was incubated at 37° C. for 72 hours. On Day 5, the medium of the cultured cells was replaced with fresh medium containing the same compound in the same way as Day 2, and then the plate was incubated at 37° C. for 72 hours. On Day 8, the cell culture plate was taken out, centrifuged at 300 g for 3 minutes, and the culture supernatant was collected at 200 μl/well. HBV DNA was extracted from the cell culture supernatant with Qiagen automatic DNA extraction device, and the specific method referred to the instructions of the reagents and instruments. Finally, the extracted DNA was eluted with DNA elution buffer at 100 μl/well. The extracted DNA was subjected to quantitative PCR analysis of HBV DNA using Hepatitis B virus nucleic acid quantitative detection kit (Triplex International Biosciences Co., Ltd.), and the specific method referred to the instruction of the kit. The quantitative standard curve was obtained with the standard sample provided in the kit, and the experiments were performed in parallel. Quantitative conversion of each sample was carried out according to the standard curve. Finally, the EC50 value of the compound was calculated with Graphpad Prism software according to each concentration of the compound and the corresponding DNA value.
The in vitro activity of the compound of the present invention on inhibiting the HBV DNA replication by inhibiting the assembly of HBV capsid protein was determined by the above experiment.

[4] = Effect on in vitro proliferation of HepG2 cells (CellTiter-Glo); type: cell-based; details: human; HepG2 cells, 72 hours, CellTiter-Glo
Experimental: as §1, §2, §3

[5] = HepG2 cells, 72 hours, CellTiter-Glo, read-out: CC50

SMILES | CC50 [1, 5] | Area under curve AUC [2] | Bioavailability (%) F % [2] | Clearance CLz/F [2] | Half-life T1/2 [2] | Plasma concentration Cmax [2] | Residence time MRT [2] | Emax (effect value of the compound to maximally inhibit HBV DNA replication) [3] | EC50 [3] | CC50 [1] | CC50 at 72 h [4] | Vd/F [2] | AUC [2] | bioavailability [2] | CL/F [2] | half-life [2] | Cmax [2] | MRT [2] | EC50 ([3]; Hepatitis B virus) | Emax ([3]; Hepatitis B virus)
C[C@H]1Cn2nnc(C(=O)N[C@H](C)C(F)(F)F)c2CN1C(=O)Nc1ccc(F)c(F)c1 [Example 39, (S)—N^5-(3,4-Difluorophenyl)-6-methyl-N^3-((R)-1,1,1-trifluoropropan-2-yl)-6,7-dihydro-[1,2,3]triazolo[1,5-α]pyrazine-3,5(4H)-dicarboxamide] | > 100000 nM | 8105 ± 1585 ng·h/mL | 114% | 4.21 ± 0.69 mL/min/kg | 6.49 ± 1.71 h | 682 ± 168 ng/mL | 9.82 ± 1.75 h | 100% | 19 nM |  |  |  |  |  |  |  |  |  |  | 
C[C@H](NC(=O)c1nnn2c1CN(C(=O)Nc1ccc(F)c(F)c1)[C@@H](C)C2)C(F)(F)F [Example 43, (S)—N^5-(3,4-Difluorophenyl)-6-methyl-N^3—((S)-1,1,1-trifluoropropan-2-yl)-6,7-dihydro-[1,2,3]triazolo[1,5-α]pyrazine-3,5(4-)-dicarboxamide] |  |  |  |  |  |  |  | 99% | 39 nM | > 100000 nM |  |  |  |  |  |  |  |  |  | 
C[C@@H]1CN(C(=O)Nc2ccc(F)c(C#N)c2)Cc2c(C(=O)N[C@H](C)C(F)(F)F)nnn21 [Example 44, (R)—N^5-(3-Cyano-4-fluorophenyl)-7-methyl-N^3-((R)-1,1,1-trifluoropropan-2-yl)-6,7-dihydro-[1,2,3]triazolo[1,5-α]pyrazine-3,5(4H)-dicarboxamide] |  |  |  |  |  |  |  |  |  |  | > 100000 nM | 4.13 ± 0.26 L/kg | 11800 ± 3100 ng·h/mL | 94% | 2.99 ± 0.78 mL/min/kg | 17 ± 5.05 h | 509 ± 39.4 ng/mL | 24.2 ± 7.38 h | 60 nM | 99%
C[C@H]1Cn2nnc(C(=O)N[C@H](C)C(F)(F)F)c2CN1C(=O)Nc1ccc(F)c(C#N)c1 [Example 45, (S)—N^5-(3-Cyano-4-fluorophenyl)-6-methyl-N^3-((R)-1,1,1-trifluoropropan-2-yl)-6,7-dihydro-[1,2,3]triazolo[1,5-α]pyrazine-3,5(4H)-dicarboxamide] | > 100000 nM | 17162 ± 5791 ng·h/mL | 110% | 2.13 ± 0.73 mL/min/kg | 19.2 ± 7.16 h | 715 ± 187 ng/mL | 27.4 ± 9.5 h | 102% | 38 nM |  |  |  |  |  |  |  |  |  |  | 
C[C@@H]1CN(C(=O)Nc2ccc(F)c(C#N)c2)Cc2c(C(=O)N[C@H](C)C(F)(F)F)ncn21 [Example 47, (R)—N^7-(3-Cyano-4-fluorophenyl)-5-methyl-N^1-((R)-1,1,1-trifluoropropan-2-yl)-5,6-dihydroimidazo[1,5-α]pyrazine-1,7(8H)-dicarboxamide] |  |  |  |  |  |  |  |  |  |  | > 100000 nM | 5.69 ± 2.24 L/kg | 7260 ± 3050 ng·h/mL | 125% | 5.4 ± 2.69 mL/min/kg | 13.1 ± 4.3 h | 462 ± 94 ng/mL | 17.7 ± 6.3 h | 82 nM | 100%
